The values that follow come from patent publication US6423545B1, “Unmarked deletion mutants of mycobacteria and methods of using same” (Albert Einstein College of Medicine of Yeshiva University, priority 1999, dated 2002).

Entries after “also recorded” stand apart in the source; their conditions may differ.

The subject of test [1] is M. bovis BCG substrain Pasteur. The format is cell-based, Mycobacterium bovis BCG.
Test [2] deals with C. glutamicum. The settings on record: AEC alone versus with threonine; cited from earlier work.
Test [3] deals with aspartokinase. The settings on record: enzyme of the first step of the aspartate amino acid family pathway; cited from earlier work.
In test [4] the test system is M. tuberculosis H37Rv. The format is cell-based, Mycobacterium tuberculosis.
Test [5] deals with E. coli. The settings on record: AEC alone; cited from earlier work.

For `NCCSC[C@H](N)C(=O)O` [AEC, S-(β-aminoethyl)-L-cysteine], the “inhibitory effect upon growth” value is given as “neither AEC or Thr alone have an inhibitory effect; also recorded: the combination of the two does inhibit growth, with BCG experiencing the greatest inhibition” in test [1] and “neither AEC or Thr alone have an inhibitory effect; also recorded: the combination of the two does inhibit growth” in test [4]. Further, the inhibition of growth result was “requires the addition of threonine to inhibit the growth of C. glutamicum” in test [2] and “capable of inhibiting the growth of E. coli” in test [5]. In addition, the inhibition of aspartokinase entry in test [3] is given as “inhibits aspartokinase”.

On to `C[C@@H](O)[C@H](N)C(=O)O` [Thr, threonine], for which the “inhibitory effect upon growth” value in test [1] and in test [4] was “neither AEC or Thr alone have an inhibitory effect” each time.
